Results from patent publication US9388189B2, “Pyrrolotriazinone derivatives as PI3K inhibitors” (ALMIRALL, S.A., priority 2012, dated 2016).

Molecular target: PI3Kδ (PI3Kd) (Homo sapiens (Human), UniProt O00329)
Assay: PI3K HTRF enzymatic inhibition assay (cell-free), delta isoform
Conditions: read-out: IC50 PI3Kd HTRF; recombinant PI3K delta, [ATP] 15 μM, [PIP2] 2 μM, 30 min preincubation
Source text: Compounds were screened for their ability to inhibit PI3Kα (PI3Ka), PI3Kβ (PI3Kb), PI3Kδ (PI3Kd) and PI3Kγ (PI3Kg) using a cell-free based PI3K HTRF™ assay (Millipore, ref. #33-017).
PI-3 Kinase HTRF kit (ref. #33-037) and the different PI3K recombinant isoforms (ref. #14-602, ref. #14-603, ref. #14-604, ref. #15-558 for Alpha, Beta, Delta and Gamma respectively) were purchased at Millipore (expressed in insect cells). ATP was purchased at Sigma Aldrich (ref. #A7699).
The compounds were pre-incubated with the enzyme for 30 min before starting of the catalytic reaction. [PIP2] was used at its Km. […] Time of assay and [Enzyme] were optimized to work in the linear range. Stop and Detection mixtures were used as specified in the Millipore PI-3 Kinase kit.
Reaction time and enzyme concentration in the assay will depend of each batch.
All experiments were analysed using Activity Base software from IDBS and the four-parameter log equation.

Chain of PI3Kδ (PI3Kd) (O00329 whole entry, canonical isoform): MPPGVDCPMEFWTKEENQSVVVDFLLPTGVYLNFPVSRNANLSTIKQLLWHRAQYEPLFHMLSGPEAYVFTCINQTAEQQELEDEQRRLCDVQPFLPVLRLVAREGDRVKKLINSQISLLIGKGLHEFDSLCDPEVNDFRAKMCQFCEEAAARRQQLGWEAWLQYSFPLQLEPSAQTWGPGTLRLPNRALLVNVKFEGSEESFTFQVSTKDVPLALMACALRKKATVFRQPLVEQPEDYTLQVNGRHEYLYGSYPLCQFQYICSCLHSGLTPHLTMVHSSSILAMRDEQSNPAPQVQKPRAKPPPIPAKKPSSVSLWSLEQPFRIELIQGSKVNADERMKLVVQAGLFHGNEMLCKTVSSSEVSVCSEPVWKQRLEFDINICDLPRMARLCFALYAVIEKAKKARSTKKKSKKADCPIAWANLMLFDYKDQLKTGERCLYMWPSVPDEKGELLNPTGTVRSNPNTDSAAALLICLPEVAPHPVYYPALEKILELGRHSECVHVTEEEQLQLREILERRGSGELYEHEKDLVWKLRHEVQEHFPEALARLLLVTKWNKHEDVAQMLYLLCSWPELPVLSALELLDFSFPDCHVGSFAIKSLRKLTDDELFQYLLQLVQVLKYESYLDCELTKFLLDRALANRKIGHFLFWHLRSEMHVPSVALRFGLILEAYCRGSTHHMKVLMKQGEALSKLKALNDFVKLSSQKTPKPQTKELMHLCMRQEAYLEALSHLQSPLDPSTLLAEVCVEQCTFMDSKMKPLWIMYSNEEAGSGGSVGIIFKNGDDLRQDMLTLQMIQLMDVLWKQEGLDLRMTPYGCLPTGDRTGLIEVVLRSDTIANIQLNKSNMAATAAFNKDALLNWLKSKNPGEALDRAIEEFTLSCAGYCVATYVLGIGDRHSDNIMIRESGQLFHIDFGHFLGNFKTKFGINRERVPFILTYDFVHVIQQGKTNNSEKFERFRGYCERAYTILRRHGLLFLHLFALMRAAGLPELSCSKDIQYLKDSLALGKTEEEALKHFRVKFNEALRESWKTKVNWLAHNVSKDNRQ
Chain of PI3Kδ (PI3Kd) (P27986 whole entry partner, canonical isoform): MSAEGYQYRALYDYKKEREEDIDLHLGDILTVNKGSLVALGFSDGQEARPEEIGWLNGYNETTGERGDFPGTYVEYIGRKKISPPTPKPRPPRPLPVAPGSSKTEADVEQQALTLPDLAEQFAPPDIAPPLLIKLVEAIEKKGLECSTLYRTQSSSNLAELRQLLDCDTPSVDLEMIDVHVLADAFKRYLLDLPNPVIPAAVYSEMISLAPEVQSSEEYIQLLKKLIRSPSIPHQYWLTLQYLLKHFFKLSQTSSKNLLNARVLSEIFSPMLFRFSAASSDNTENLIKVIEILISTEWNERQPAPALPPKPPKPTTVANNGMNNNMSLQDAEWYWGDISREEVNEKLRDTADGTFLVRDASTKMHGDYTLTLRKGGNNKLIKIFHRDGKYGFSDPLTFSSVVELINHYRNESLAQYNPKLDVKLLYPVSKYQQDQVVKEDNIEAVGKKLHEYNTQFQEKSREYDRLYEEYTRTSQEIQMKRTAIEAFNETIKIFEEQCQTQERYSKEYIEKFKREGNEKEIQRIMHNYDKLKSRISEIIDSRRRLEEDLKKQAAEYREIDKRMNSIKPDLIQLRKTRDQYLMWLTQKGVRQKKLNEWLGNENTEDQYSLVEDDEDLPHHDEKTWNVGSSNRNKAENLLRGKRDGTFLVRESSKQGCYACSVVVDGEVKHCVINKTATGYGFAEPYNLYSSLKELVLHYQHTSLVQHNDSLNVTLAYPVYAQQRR

Structure (SMILES)	IC50
Cc1ccn2nc([C@H](C)Nc3ncnc4[nH]cc(-c5cccc(Cl)c5O)c34)n(-c3ccccc3)c(=O)c12 [Example 104, (S)-2-(1-((5-(3-Chloro-2-hydroxyphenyl)-7H-pyrrolo[2,3-d]pyrimidin-4-yl)amino)ethyl)-5-methyl-3-phenylpyrrolo[2,1-f][1,2,4]triazin-4(3H)-one]	1 nM
Cc1ccn2nc([C@H](C)Nc3ncnc(N)c3-c3cccc(NS(=O)(=O)c4ccc(O)cc4)c3)n(-c3ccccc3)c(=O)c12 [Example 106, (S)—N-(3-(4-Amino-6-((1-(5-methyl-4-oxo-3-phenyl-3,4-dihydropyrrolo[2,1-f][1,2,4]triazin-2-yl)ethyl)amino)pyrimidin-5-yl)phenyl)-4-hydroxybenzenesulfonamide]	0.4 nM
Cc1ccn2nc([C@H](C)Nc3ncnc4[nH]cc(-c5cnn(CCN(C)C)c5)c34)n(-c3ccccc3)c(=O)c12 [Example 107, (S)-2-(1-((5-(1-(2-(Dimethylamino)ethyl)-1H-pyrazol-4-yl)-7H-pyrrolo[2,3-d]pyrimidin-4-yl)amino)ethyl)-5-methyl-3-phenylpyrrolo[2,1-f][1,2,4]triazin-4(3H)-one]	2 nM
Cc1ccn2nc([C@H](C)Nc3ncnc(N)c3-c3cncc(C(F)(F)F)c3)n(-c3ccccc3)c(=O)c12 [Example 114, (S)-2-(1-((6-Amino-5-(5-(trifluoromethyl)pyridin-3-yl)pyrimidin-4-yl)amino)ethyl)-5-methyl-3-phenylpyrrolo[2,1-f][1,2,4]triazin-4(3H)-one]	0.5 nM
Cc1ccn2nc([C@H](C)Nc3ncnc(N)c3-c3cnn(CCO)c3)n(-c3ccccc3)c(=O)c12 [Example 116, (S)-2-(1-((6-Amino-5-(1-(2-hydroxyethyl)-1H-pyrazol-4-yl)pyrimidin-4-yl)amino)ethyl)-5-methyl-3-phenylpyrrolo[2,1-f][1,2,4]triazin-4(3H)-one]	1 nM
Cc1ccn2nc([C@H](C)Nc3ncnc(N)c3C(=O)N3CC[C@H](O)C3)n(-c3ccccc3)c(=O)c12 [Example 119, 3-((S)-1-((6-Amino-5-((S)-3-hydroxypyrrolidine-1-carbonyl)pyrimidin-4-yl)amino)ethyl)-8-methyl-2-phenylpyrrolo[2,1-f][1,2,4]triazin-1 (2H)-one]	156 nM
CCNc1nnc(-c2c[nH]c3ncnc(N[C@@H](C)c4nn5ccc(C)c5c(=O)n4-c4ccccc4)c23)s1 [Example 120, (S)-2-(1-((5-(5-(Ethylamino)-1,3,4-thiadiazol-2-yl)-7H-pyrrolo[2,3-d]pyrimidin-4-yl)amino)ethyl)-5-methyl-3-phenylpyrrolo[2,1-f][1,2,4]triazin-4(3H)-one]	0.4 nM
Cc1ccn2nc([C@H](C)Nc3ncnc4[nH]cc(-c5cc(O)cc(NS(=O)(=O)c6ccc(O)cc6)c5)c34)n(-c3ccccc3)c(=O)c12 [Example 125, (S)-4-Hydroxy-N-(3-hydroxy-5-(4-((1-(5-methyl-4-oxo-3-phenyl-3,4-dihydropyrrolo[2,1-f][1,2,4]triazin-2-yl)ethyl)amino)-7H-pyrrolo[2,3-d]pyrimidin-5-yl)phenyl)benzenesulfonamide]	0.7 nM
Cc1ccn2nc([C@H](C)Nc3ncnc(N)c3-c3cncc(OC(F)F)c3)n(-c3ccccc3)c(=O)c12 [Example 127, (S)-2-(1-((6-Amino-5-(5-(difluoromethoxy)pyridin-3-yl)pyrimidin-4-yl)amino)ethyl)-5-methyl-3-phenylpyrrolo[2,1-f][1,2,4]triazin-4(3H)-one]	0.4 nM
CC(C)N1CCN(C(=O)CCCC#Cc2ccn3nc([C@H](C)Nc4ncnc(N)c4C#N)n(-c4ccccc4)c(=O)c23)CC1 [Example 128, (S)-4-Amino-6-((1-(5-(6-(4-isopropylpiperazin-1-yl)-6-oxohex-1-yn-1-yl)-4-oxo-3-phenyl-3,4-dihydropyrrolo[2,1-f][1,2,4]triazin-2-yl)ethyl)amino)pyrimidine-5-carbonitrile]	4 nM
Cc1ccn2nc([C@H](C)Nc3ncnc(N)c3-c3cc(O)cc(NS(=O)(=O)c4ccc(F)cc4F)c3)n(-c3ccccc3)c(=O)c12 [Example 130, (S)—N-(3-(4-Amino-6-((1-(5-methyl-4-oxo-3-phenyl-3,4-dihydropyrrolo[2,1-f][1,2,4]triazin-2-yl)ethyl)amino)pyrimidin-5-yl)-5-hydroxyphenyl)-2,4-difluorobenzenesulfonamide]	1 nM
Cc1ccn2nc([C@H](C)Nc3ncnc(N)c3-c3cncc(OCC(F)(F)F)c3)n(-c3ccccc3)c(=O)c12 [Example 132, (S)-2-(1-((6-Amino-5-(5-(2,2,2-trifluoroethoxyl)pyridin-3-yl)pyrimidin-4-yl)amino)ethyl)-5-methyl-3-phenylpyrrolo[2,1-f][1,2,4]triazin-4(3H)-one]	2 nM
COc1cc(-c2c(N)ncnc2N[C@@H](C)c2nn3ccc(C)c3c(=O)n2-c2ccccc2)cc(C(F)(F)F)n1 [Example 137, (S)-2-(1-((6-Amino-5-(2-methoxy-6-(trifluoromethyl)pyridin-4-yl)pyrimidin-4-yl)amino)ethyl)-5-methyl-3-phenylpyrrolo[2,1-f][1,2,4]triazin-4(3H)-one]	4 nM
Cc1ccn2nc([C@H](C)Nc3ncnc4[nH]cc(-c5cnc6[nH]ccc6c5)c34)n(-c3ccccc3)c(=O)c12 [Example 139, (S)-2-(1-((5-(1H-Pyrrolo[2,3-b]pyridin-5-yl)-7H-pyrrolo[2,3-d]pyrimidin-4-yl)amino)ethyl)-5-methyl-3-phenylpyrrolo[2,1-f][1,2,4]triazin-4(3H)-one]	0.2 nM
Cc1ccn2nc([C@H](C)Nc3ncnc4[nH]cc(-c5cnn(CCCO)c5)c34)n(-c3ccccc3)c(=O)c12 [Example 140, (S)-2-(1-((5-(1-(3-Hydroxypropyl)-1H-pyrazol-4-yl)-7H-pyrrolo[2,3-d]pyrimidin-4-yl)amino)ethyl)-5-methyl-3-phenylpyrrolo[2,1-f][1,2,4]triazin-4(3H)-one]	0.2 nM
Cc1ccn2nc([C@H](C)Nc3ncnc4[nH]cc(-c5ccn(CCN6CCOCC6)n5)c34)n(-c3ccccc3)c(=O)c12 [Example 144, (S)-5-Methyl-2-(1-((5-(1-(2-morpholinoethyl)-1H-pyrazol-3-yl)-7H-pyrrolo[2,3-d]pyrimidin-4-yl)amino)ethyl)-3-phenylpyrrolo[2,1-f][1,2,4]triazin-4(3H)-one]	2 nM
Cc1ccn2nc([C@H](C)Nc3ncnc4[nH]cc(-c5ccn(CC(F)(F)F)n5)c34)n(-c3ccccc3)c(=O)c12 [Example 145, (S)-5-Methyl-3-phenyl-2-(1-((5-(1-(2,2,2-trifluoroethyl)-1H-pyrazol-3-yl)-7H-pyrrolo[2,3-d]pyrimidin-4-yl)amino)ethyl)pyrrolo[2,1-f][1,2,4]triazin-4(3H)-one]	0.2 nM
COc1cc(C#N)cc(-c2c[nH]c3ncnc(N[C@@H](C)c4nn5ccc(C)c5c(=O)n4-c4ccccc4)c23)c1 [Example 147, (S)-3-Methoxy-5-(4-((1-(5-methyl-4-oxo-3-phenyl-3,4-dihydropyrrolo[2,1-f][1,2,4]triazin-2-yl)ethyl)amino)-7H-pyrrolo[2,3-d]pyrimidin-5-yl)benzonitrile]	0.4 nM
Cc1ccn2nc([C@H](C)Nc3ncnc4[nH]cc(-c5cc(O)cc(NS(=O)(=O)CCN(C)C)c5)c34)n(-c3ccccc3)c(=O)c12 [Example 150, (S)-2-(Dimethylamino)-N-(3-hydroxy-5-(4-((1-(5-methyl-4-oxo-3-phenyl-3,4-dihydropyrrolo[2,1-f][1,2,4]triazin-2-yl)ethyl)amino)-7H-pyrrolo[2,3-d]pyrimidin-5-yl)phenyl)ethanesulfonamide]	1 nM
Cc1ccn2nc([C@H](C)Nc3ncnc4[nH]cc(-c5cc(C(F)(F)F)nn5C)c34)n(-c3ccccc3)c(=O)c12 [Example 151, (S)-5-Methyl-2-(1-((5-(1-methyl-3-(trifluoromethyl)-1H-pyrazol-5-yl)-7H-pyrrolo[2,3-d]pyrimidin-4-yl)amino)ethyl)-3-phenylpyrrolo[2,1-f][1,2,4]triazin-4(3H)-one]	5 nM
Cc1ccn2nc([C@H](C)Nc3ncnc(N)c3-c3ccc(N4CCN(C(=O)OC(C)(C)C)CC4)cc3)n(-c3ccccc3)c(=O)c12 [Example 152, (S)-tert-Butyl 4-(4-(4-amino-6-((1-(5-methyl-4-oxo-3-phenyl-3,4-dihydropyrrolo[2,1-f][1,2,4]triazin-2-yl)ethyl)amino)pyrimidin-5-yl)phenyl)piperazine-1-carboxylate]	100 nM
Cc1ccn2nc([C@H](C)Nc3ncnc4[nH]cc(-c5ccn(CC(C)(C)CO)n5)c34)n(-c3ccccc3)c(=O)c12 [Example 155, (S)-2-(1-((5-(1-(3-Hydroxy-2,2-dimethylpropyl)-1H-pyrazol-3-yl)-7H-pyrrolo[2,3-d]pyrimidin-4-yl)amino)ethyl)-5-methyl-3-phenylpyrrolo[2,1-f][1,2,4]triazin-4(3H)-one]	0.3 nM
Cc1ccn2nc([C@H](C)Nc3ncnc(N)c3-c3cc(O)cc(C(=O)N(C)C)c3)n(-c3ccccc3)c(=O)c12 [Example 156, (S)-3-(4-Amino-6-((1-(5-methyl-4-oxo-3-phenyl-3,4-dihydropyrrolo[2,1-f][1,2,4]triazin-2-yl)ethyl)amino)pyrimidin-5-yl)-5-hydroxy-N,N-dimethyl benzamide]	1 nM
COc1ncc(-c2c(N)ncnc2N[C@@H](C)c2nn3ccc(C)c3c(=O)n2-c2ccccc2)cc1NS(=O)(=O)c1ccc(O)cc1 [Example 157, (S)—N-(5-(4-Amino-6-((1-(5-methyl-4-oxo-3-phenyl-3,4-dihydropyrrolo[2,1-f][1,2,4]triazin-2-yl)ethyl)amino)pyrimidin-5-yl)-2-methoxypyridin-3-yl)-4-hydroxybenzenesulfonamide]	0.2 nM
Cc1ccn2nc([C@H](C)Nc3ncnc4[nH]cc(-c5ccn(Cc6ccccc6O)n5)c34)n(-c3ccccc3)c(=O)c12 [Example 159, (S)-2-(1-((5-(1-(2-Hydroxybenzyl)-1H-pyrazol-3-yl)-7H-pyrrolo[2,3-d]pyrimidin-4-yl)amino)ethyl)-5-methyl-3-phenylpyrrolo[2,1-f][1,2,4]triazin-4(3H)-one]	4 nM
